Results: patent US8404678B2, “Cytotoxic agents comprising new tomaymycin derivatives and their therapeutic use” (priority 2007, dated 2013)
Read-outs that look alike come from different tables or passages of the source.

Legend:
Assay type in all cases: cell-based
SK-MEL-28 cells = assay: Continuous exposure clonogenic assay; settings: Homo sapiens
Description: (§1) MDA-MB-231 cells were plated at 3000 cells per well in two separate 6-well plates; PC-3 and SK-MEL-28 cells were plated at 2000 cells per well in 2 separate plates. The test article(s) were added to give final concentrations of 0, 5×10^−13, 5×10^−12, 5×10^−11, 5×10^−10 and 5×10^−9 M per well (or similar dosage range) to each plate. For example, when cells are plated in 1 mL, and 1 mL of a 2× concentration of the test compound or conjugate is added to the appropriate wells to give the final desired concentration in 2 mls. The final solution of the test article was made in the same medium as the cell line; therefore, different dilutions of conjugate had to be made for each different cell line. The plates are placed in an incubator at 37° C. in 5% CO2. Cell growth is monitored and when cells in the “0” (control) wells had formed colonies but were not confluent, usually 7 days for these cell lines, the supernatant was removed by aspiration. The cells were washed once with PBS (Phosphate Buffer Solution) and the supernatant aspirated. To each well, 0.5 ml per well of a 0.1% crystal violet/10% formalin/PBS was added. The plates were incubated at room temperature for 10-15 minutes. The supernatant was aspirated and the wells washed 3 times with distilled H2O, and then air dried. Colonies in each well were counted and the number of colonies in each dosed well was divided by the number of colonies in the “0” well to give the surviving fraction. IC50 values were then calculated from the data.

PC-3 cells = assay: Continuous exposure clonogenic assay; settings: Homo sapiens
Description: as §1

MDA-MB-231 cells = assay: Continuous exposure clonogenic assay; settings: Homo sapiens
Description: as §1

HL60/ATCC cells = assay: In vitro viability assay (WST-8)
Description: (§2) Samples of free tomaymycin derivative or tomaymycin derivative conjugate are added to a 96-well flat bottomed tissue culture plate and titrated using serial dilutions ranging from 1×10^−12 M to 3×10^−7 M. Antigen positive tumor cells or antigen negative tumor cells are added to the wells in such a way that there are triplicate samples for each drug concentration for each cell line. […]
(§3) At the end of the incubation period, 20 μl of the tetrazolium reagent WST-8 (2-(2-methoxy-nitrophenyl)-3-(4-nitrophenyl)-5-(2,4-disulfophenyl)-2-tetrazolium, monosodium salt) is added to each well, and the plates are returned to the incubator for 2 hours. The absorbance in each well of the plates is then measured using the Molecular Devices plate reader at 450 nm. Surviving fraction of cells at each concentration of tomaymycin derivative or conjugate are plotted.
(§4) The cytotoxicity of the compounds and their specificity vs. the conjugates of the invention against MOLT-4, BJAB, HL60/QC, HL60/ATCC and Ramos cell lines were tested. Results are illustrated in FIGS. 1, 2, 3, 6 and 8.

Ramos cells = assay: In vitro viability assay (WST-8)
Description: as §2
[…] The absorbance in each well of the plates is then measured using the Molecular Devices plate reader at 450 nm. Surviving fraction of cells at each concentration of tomaymycin derivative or conjugate are plotted.
as §4

HL60/QC cells = assay: In vitro viability assay (WST-8); settings: Homo sapiens
Description: (§5) Samples of free tomaymycin derivative or tomaymycin derivative conjugate are added to a 96-well flat bottomed tissue culture plate and titrated using serial dilutions ranging from 1×10^−12 M to 3×10^−7 M. Antigen positive tumor cells or antigen negative tumor cells are added to the wells in such a way that there are triplicate samples for each drug concentration for each cell line. The plates are incubated at 37° C. in an atmosphere of 5% CO2 for 4 days.
as §3, §4

various cell-lines = assay: In vitro cytotoxicity, cell line not named; settings: FIG. 3; IGP08-OMe compared with IGP08
Description: as §5
as §3, with “Surviving fraction of cells at each concentration of tomaymycin derivative or conjugate are plotted.” left out
MDA-MB-231 cells were plated at 3000 cells per well in two separate 6-well plates; PC-3 and SK-MEL-28 cells were plated at 2000 cells per well in 2 separate plates. […] Cell growth is monitored and when cells in the “0” (control) wells had formed colonies but were not confluent, usually 7 days for these cell lines, the supernatant was removed by aspiration. […] Colonies in each well were counted and the number of colonies in each dosed well was divided by the number of colonies in the “0” well to give the surviving fraction. IC50 values were then calculated from the data.

[1] = SK-MEL-28, read-out: In vitro data (IC50) SK-MEL-28
[2] = PC-3, read-out: In vitro data (IC50) PC-3
[3] = MDA-MB-231, read-out: In vitro data (IC50) MDA-MB-231
[4] = Homo sapiens, HL-60, read-out: In vitro data (IC50) HL60/ATCC
[5] = Homo sapiens, Ramos, read-out: In vitro data (IC50) Ramos
[6] = HL-60, read-out: In vitro data (IC50) HL60/QC

C/C=C1\C[C@H]2C=Nc3cc(OCc4cc(COc5cc6c(cc5OC)C(=O)N5C/C(=C/C)C[C@H]5C=N6)cc(OCCOCCOCCOCCC(=O)OC)c4)c(OC)cc3C(=O)N2C1
IC50 (SK-MEL-28 cells; [1]): 0.0097 nM | IC50 (PC-3 cells; [2]): 0.0074 nM | IC50 (MDA-MB-231 cells; [3]): 0.016 nM | IC50 (HL60/ATCC cells; [4]): 0.012 nM

C/C=C1\C[C@H]2C=Nc3cc(OCc4cc(C#CCCCC(=O)OC)cc(COc5cc6c(cc5OC)C(=O)N5C/C(=C/C)C[C@H]5C=N6)c4)c(OC)cc3C(=O)N2C1
IC50 (Ramos cells; [5]): 0.0012 nM | IC50 (SK-MEL-28 cells; [1]): 0.015 nM | IC50 (PC-3 cells; [2]): 0.027 nM | IC50 (MDA-MB-231 cells; [3]): 0.012 nM | IC50 (HL60/ATCC cells; [4]): 0.0022 nM

C=C1C[C@H]2C=Nc3cc(OCc4cc(CCC(=O)O)cc(COc5cc6c(cc5OC)C(=O)N5CC(=C)C[C@H]5C=N6)c4)c(OC)cc3C(=O)N2C1 [compound 9, 4-(3,5-Bis-[(S)-2-methylidene-7-methoxy-1,2,3,11a-tetrahydro-pyrrolo[2,1c][1,4]benzodiazepin-5-one-8-yloxymethyl]-phenyl)-propanoic acid]
IC50 (HL60/QC cells; [6]): 3.5 nM | IC50 (Ramos cells; [5]): 2.7 nM | IC50 (HL60/ATCC cells; [4]): 2.6 nM

C/C=C1\C[C@H]2C=Nc3cc(OCc4cc(OCCCC(=O)OC)cc(COc5cc6c(cc5OC)C(=O)N5C/C(=C/C)C[C@H]5C=N6)n4)c(OC)cc3C(=O)N2C1
IC50 (SK-MEL-28 cells; [1]): 0.0087 nM | IC50 (PC-3 cells; [2]): 0.011 nM | IC50 (MDA-MB-231 cells; [3]): 0.0017 nM

C/C=C1\C[C@H]2C=Nc3cc(OCc4cc(COc5cc6c(cc5OC)C(=O)N5C/C(=C/C)C[C@H]5C=N6)cc(OCCN(C)C(=O)CCC(=O)OC)c4)c(OC)cc3C(=O)N2C1
IC50 (SK-MEL-28 cells; [1]): 0.09 nM | IC50 (PC-3 cells; [2]): 0.5 nM | IC50 (MDA-MB-231 cells; [3]): 0.009 nM

C=C1C[C@H]2C=Nc3cc(OCc4cc(CCC(=O)OC)cc(COc5cc6c(cc5OC)C(=O)N5CC(=C)C[C@H]5C=N6)c4)c(OC)cc3C(=O)N2C1 [compound 8]
In vitro cytotoxicity potency, ester versus acid (various cell-lines): higher potency | IC50 (HL60/QC cells; HL-60, unconjugated tomaymicine derivatives, HL60/QC, read-out: In vitro data (IC50) HL60/QC): 0.0011 nM | IC50 (Ramos cells; Homo sapiens, unconjugated tomaymicine derivatives, Ramos, read-out: In vitro data (IC50) Ramos): 0.008 nM | IC50 (SK-MEL-28 cells; unconjugated tomaymicine derivatives, SK-MEL-28, read-out: In vitro data (IC50) SK-MEL-28): 0.01 nM | IC50 (PC-3 cells; unconjugated tomaymicine derivatives, PC-3, read-out: In vitro data (IC50) PC-3): 0.027 nM | IC50 (MDA-MB-231 cells; unconjugated tomaymicine derivatives, MDA-MB-231, read-out: In vitro data (IC50) MDA-MB-231): 0.017 nM | IC50 (HL60/ATCC cells; Homo sapiens, HL-60, unconjugated tomaymicine derivatives, HL60/ATCC, read-out: In vitro data (IC50) HL60/ATCC): 0.004 nM

C=C1C[C@H]2C=Nc3cc(OCc4cc(COc5cc6c(cc5OC)C(=O)N5C/C(=C/C)C[C@H]5C=N6)cc(OCC(=O)OC)c4)c(OC)cc3C(=O)N2C1
IC50 (Ramos cells; [5]): 0.0014 nM | IC50 (HL60/ATCC cells; [4]): 0.012 nM

C/C=C1\C[C@H]2C=Nc3cc(OCc4cc(COc5cc6c(cc5OC)C(=O)N5C/C(=C/C)C[C@H]5C=N6)cc(OCCCC(=O)O)c4)c(OC)cc3C(=O)N2C1
IC50 (HL60/QC cells; [6]): 1.2 nM | IC50 (Ramos cells; [5]): 0.58 nM | IC50 (HL60/ATCC cells; [4]): 2 nM

C/C=C1\C[C@H]2C=Nc3cc(OCc4cc(OCCOCCOCCOCCC(=O)OC)cc(COc5cc6c(cc5OC)C(=O)N5C/C(=C/C)C[C@H]5C=N6)n4)c(OC)cc3C(=O)N2C1
IC50 (SK-MEL-28 cells; [1]): 0.071 nM | IC50 (PC-3 cells; [2]): 0.5 nM | IC50 (MDA-MB-231 cells; [3]): 0.008 nM

huMy9-6—3-(2-{2-[2-(3,5-Bis-[(S)-2-eth-(E)-ylidene-7-methoxy-1,2,3,11a-tetrahydro-pyrrolo[2,1c][1,4]benzodiazepin-5-one-8-yloxymethyl]-phenoxy)-ethoxy]-ethoxy}-ethoxy)-propionyl conjugate [ex. 14]
IC50 (Ramos cells; conjugate, Ramos (Ag−) @ 2000 cells/well, 5 day exposure, WST 4.5 hours, FIG. 23, read-out: ~IC50 Ramos cells): < 10 nM | IC50 (HL60/ATCC cells; conjugate, HL60/ATCC (Ag+) @ 5000 cells/well, 7 day exposure, WST 2 hours, FIG. 23, read-out: ~IC50 HL60/ATCC cells): ~0.023 nM
